One data set has as its system MCF7. Briefly: Antiproliferative activity of compound was evaluated on MCF-7 cells from human breast adenocarcinoma. The format is functional. The conditions noted are these: read-out: ID50 (the source's name).
Data set [1] in a line: Antiproliferative activity of compound was evaluated on Molt3 cells from human lymphoblastic leukemia. The format is functional. The note with it: MOLT-3, read-out: ID50 (the source's name).
Data set [2] in a line: Antiproliferative activity of compound was evaluated on SupT1 cells from human non-Hodgkin lymphoma. The format is functional. The note with it: SUP-T1, read-out: ID50 (the source's name).
Data set [3] relates to Vero. Briefly: The compound was evaluated for cytotoxicity against VERO cells using Lowry's test at a concentration 11.2 uM. In kind it is cell-based. The conditions noted are these: chlorocebus sabaeus.
A short description of data set [4]: The compound was evaluated for cytotoxicity against VERO cells using Dye test at a concentration 11.2 uM. In kind it is cell-based. The conditions noted are these: chlorocebus sabaeus, read-out: Cellular growth.
Data set [5] has as its system Vero. Description: The compound was evaluated for cytotoxicity against VERO cells using Lowry's test at a concentration 0.7 uM. The format is cell-based. The note with it: chlorocebus sabaeus.
For data set [6], the system named is Vero. Briefly: The compound was evaluated for cytotoxicity against VERO cells using Lowry's test at a concentration 90 uM. In kind it is cell-based. The conditions noted are these: chlorocebus sabaeus.
Data set [7] in a line: The compound was evaluated for cytotoxicity against VERO cells using Dye test at a concentration 90 uM. The format is cell-based. The conditions noted are these: chlorocebus sabaeus, read-out: Cellular growth.
Data set [8] in a line: The compound was evaluated for cytotoxicity against VERO cells using Dye test at a concentration 0.7 uM. The format is cell-based. The conditions noted are these: chlorocebus sabaeus, read-out: Cellular growth.

With `NC1=CC(=O)c2[nH]c(-c3ccccn3)nc2C1=O`, the IC50 was above 90 µM in the data set with MCF7, 39.7 µM in data set [1] and 29.3 µM in [2].
For `CO[C@@]12[C@H](COC(N)=O)C3=C(C(=O)C(C)=C(N)C3=O)N1C[C@@H]1N[C@@H]12` [MITOMYCIN] the same measures were 42.9 µM, 2.66 µM and below 0.7 µM.
On to `CSc1nc2c([nH]1)C(=O)C=CC2=O`, for which the Protein content with Vero [3] was determined as 86.4%; with Vero [5], 102.9%; with Vero [6] it was 68.9%. Also, the viability at 11.2 µM in data set [4] was found to be 101%. In addition, the IC50 came to 62.6 µM in the data set on MCF7, 1.32 µM in [1] and 2.87 µM in data set [2]. For the same compound, the viability at 90 µM in [7] turned out to be 73.6%. Further, in [8], the viability at 0.7 µM is 99.3%.
`CSc1nc2c([nH]1)C(=O)/C(=N/CCCl)C=C2O`: the IC50 was above 90 µM in the data set on MCF7, 30.6 µM in data set [1] and 15.3 µM in data set [2].
For `CSc1nc2c([nH]1)C(=O)C=C(Br)C2=O` the same measures were 62.8 µM, 32.1 µM and 5.03 µM.
Regarding `CSc1nc2c([nH]1)C(=O)C=C(N(C)C)C2=O`, the IC50 was above 90 µM in the data set on MCF7, 18.3 µM in data set [1] and 38 µM in [2].
Regarding `O=C1C(Br)=CC(=O)c2[nH]c(-c3ccccn3)nc21`, the IC50 in the data set on MCF7 was above 90 µM; in data set [1], 7.52 µM; in [2], 5.57 µM.
The corresponding values for `COC1=CC(=O)c2[nH]c(SC)nc2C1=O` are 36 µM, 20.8 µM and 5.07 µM.
The corresponding values for `CN(C)C1=CC(=O)c2[nH]c(-c3ccccn3)nc2C1=O` are above 90 µM, 22.4 µM and 17.4 µM.
Turning to `CSc1nc2c([nH]1)C(=O)C(=N)C=C2O`, the IC50 was above 90 µM in the data set with MCF7, 60.4 µM in data set [1] and 10.8 µM in data set [2].
Take `COC1=CC(=O)c2[nH]c(-c3ccccn3)nc2C1=O`: the Protein content amounted to 81.3% with Vero [3], 97.2% with Vero [5] and 16.2% with Vero [6]. The viability at 11.2 µM in data set [4] was determined as 71.2%. Further, the results for the IC50 (in the data set with MCF7; in [1]; in data set [2]) were 26.4 µM, 2.63 µM and 2.57 µM, respectively. The viability at 90 µM in data set [7] is 16.4%. Moreover, the viability at 0.7 µM in [8] was determined as 114%.
As to `CSc1nc2c([nH]1)C(=O)C(Br)=C(Br)C2=O`, the results for the IC50 (in the data set with MCF7; in data set [1]; in data set [2]) were 40.3 µM, 12 µM and 6.26 µM, respectively.

The record behind these values is ChEMBL document CHEMBL1132744, “Synthesis and antiproliferative activity of some benzimidazole-4,7-dione derivatives” (Bioorg Med Chem Lett, 2000).
